From US12649722B2, “Herbicidal cinnoline derivatives” (SYNGENTA CROP PROTECTION AG, priority 2020, dated 2026)

Tests used:
Type in all cases: in vivo
[1] = test system: Setaria faberi (SETFA); experiment: Pre-emergence Test, SETFA; conditions: 1000 g/ha, evaluated after 13 days
[2] = test system: Ipornoea hederacea (IPOHE); experiment: Post-emergence Test, IPOHE; conditions: sprayed after 8 days cultivation, 1000 g/ha, evaluated after 13 days
Protocol: (§1) Seeds of a variety of test species are sown in standard soil in pots (Amaranthus retoflexus (AMARE), Solarium nigrum (SOLNI), Setaria faberi (SETFA), Lolium perenne (LOLPE), Echinochloa crus-galli (ECHCG), Ipornoea hederacea (IPOHE)). After 8 days cultivation under controlled conditions in a glasshouse (at 24° C./16° C., day/night; 14 hours light; 65% humidity), the plants are sprayed with an aqueous spray solution derived from the formulation of the technical active ingredient in acetone/water (50:50) solution containing 0.5% Tween 20 (polyoxyethylene sorbitan monolaurate, CAS RN 9005-64-5). Compounds are applied at 1000 g/ha unless otherwise stated. The test plants are then grown in a glasshouse under controlled conditions in a glasshouse (at 24° C./16° C., day/night; 14 hours light; 65% humidity) and watered twice daily. After 13 days the test is evaluated for the percentage damage caused to the plant. The biological activities are shown in the following table on a five-point scale (5=81-100%; 4=61-80%; 3=41-60%; 2=21-40%; 1=10-20%; 0=0%; −=not tested).

[3] = test system: ZEAMX; experiment: Post-emergence Test, ZEAMX; conditions: sprayed after 8 days cultivation, 1000 g/ha, evaluated after 13 days
Protocol: [The procedure below names another target; the source lists this target under the same test.] as §1

[4] = test system: Amaranthus retoflexus (AMARE); experiment: Post-emergence Test, AMARE; conditions: sprayed after 8 days cultivation, 1000 g/ha, evaluated after 13 days
Protocol: as §1

[5] = test system: Setaria faberi (SETFA); experiment: Post-emergence Test, SETFA; conditions: sprayed after 8 days cultivation, 1000 g/ha, evaluated after 13 days
Protocol: as §1

[6] = test system: Echinochloa crus-galli (ECHCG); experiment: Pre-emergence Test, ECHCG; conditions: 1000 g/ha, evaluated after 13 days
[7] = test system: Echinochloa crus-galli (ECHCG); experiment: Post-emergence Test, ECHCG; conditions: sprayed after 8 days cultivation, 1000 g/ha, evaluated after 13 days
Protocol: as §1

[8] = test system: Amaranthus retoflexus (AMARE); experiment: Pre-emergence Test, AMARE; conditions: 1000 g/ha, evaluated after 13 days
[9] = test system: Ipornoea hederacea (IPOHE); experiment: Pre-emergence Test, IPOHE; conditions: 1000 g/ha, evaluated after 13 days
[10] = test system: ABUTH; experiment: Post-emergence Test, ABUTH; conditions: sprayed after 8 days cultivation, 1000 g/ha, evaluated after 13 days
Protocol: [The procedure below names another target; the source lists this target under the same test.] as §1

[11] = test system: ABUTH; experiment: Pre-emergence Test, ABUTH; conditions: 1000 g/ha, evaluated after 13 days
[12] = test system: ZEAMX; experiment: Pre-emergence Test, ZEAMX; conditions: 1000 g/ha, evaluated after 13 days

| SMILES | percentage damage caused to the plant, SETFA [1] | percentage damage caused to the plant, IPOHE [2] | percentage damage caused to the plant, ZEAMX [3] | percentage damage caused to the plant, AMARE [4] | percentage damage caused to the plant, SETFA [5] | percentage damage caused to the plant, ECHCG [6] | percentage damage caused to the plant, ECHCG [7] | percentage damage caused to the plant, AMARE [8] | percentage damage caused to the plant, IPOHE [9] | percentage damage caused to the plant, ABUTH [10] | percentage damage caused to the plant, ABUTH [11] | percentage damage caused to the plant, ZEAMX [12] |
| --- | --- | --- | --- | --- | --- | --- | --- | --- | --- | --- | --- | --- |
| CCOC(=O)c1nn(-c2ccc(OC(F)(F)F)cc2)c2cccc(-n3ncc(C(F)(F)F)n3)c2c1=O [Compound P34, ethyl 4-oxo-1-[4-(trifluoromethoxy)phenyl]-5-[4-(trifluoromethyl)triazol-2-yl]cinnoline-3-carboxylate] | 0 (0=0%) | 0 (0=0%) | 0 (0=0%) | 0 (0=0%) | 0 (0=0%) | 0 (0=0%) | 0 (0=0%) | 0 (0=0%) | 0 (0=0%) | 0 (0=0%) | 0 (0=0%) | 2 (2=21-40%) |
| CCOC(=O)c1nn(-c2ccc(OC(F)(F)F)cc2)c2cccc(N3CCCCC3)c2c1=O [Compound P27, ethyl 4-oxo-5-(1-piperidyl)-1-[4-(trifluoromethoxy)phenyl] cinnoline-3-carboxylate] | 0 (0=0%) | 0 (0=0%) | 0 (0=0%) | 0 (0=0%) | 0 (0=0%) | 0 (0=0%) | 0 (0=0%) | 0 (0=0%) | 0 (0=0%) | 0 (0=0%) | 0 (0=0%) | 0 (0=0%) |
| CCOC(=O)c1nn(-c2ccc(OC(F)(F)F)cc2)c2cccc(C#N)c2c1=O [Compound P38, ethyl 5-cyano-4-oxo-1-[4-(trifluoromethoxy)phenyl] cinnoline-3-carboxylate] | 5 (5=81-100%) | 3 (3=41-60%) | 2 (2=21-40%) | 3 (3=41-60%) | 4 (4=61-80%) | 5 (5=81-100%) | 5 (5=81-100%) | 3 (3=41-60%) | 1 (1=10-20%) | 1 (1=10-20%) | 0 (0=0%) | 2 (2=21-40%) |
| CCOC(=O)c1nn(-c2ccc(OC(F)(F)F)cc2)c2cccc(-n3cc(Cl)cn3)c2c1=O [Compound P32, ethyl 5-(4-chloropyrazol-1-yl)-4-oxo-1-[4-(trifluoromethoxy)phenyl] cinnoline-3-carboxylate] | 4 (4=61-80%) | 1 (1=10-20%) | 1 (1=10-20%) | 1 (1=10-20%) | 3 (3=41-60%) | 4 (4=61-80%) | 3 (3=41-60%) | 2 (2=21-40%) | 0 (0=0%) | 1 (1=10-20%) | 2 (2=21-40%) | 2 (2=21-40%) |
| O=C(O)c1nn(-c2ccc(OC(F)(F)F)cc2)c2cccc(N3CCCCC3)c2c1=O [Compound P24, 4-oxo-5-(1-piperidyl)-1-[4-(trifluoromethoxy)phenyl] cinnoline-3-carboxylic acid] | 0 (0=0%) | 0 (0=0%) | 0 (0=0%) | 0 (0=0%) | 0 (0=0%) | 1 (1=10-20%) | 0 (0=0%) | 0 (0=0%) | 0 (0=0%) | 1 (1=10-20%) | 1 (1=10-20%) | 0 (0=0%) |
| O=C(O)c1nn(-c2ccc(OC(F)(F)F)cc2)c2cccc(-n3cc(C(F)(F)F)cn3)c2c1=O [Compound P22, 4-oxo-1-[4-(trifluoromethoxy)phenyl]-5-[4-(trifluoromethyl)pyrazol-1-yl]cinnoline-3-carboxylic acid] | 0 (0=0%) | 1 (1=10-20%) | 2 (2=21-40%) | 4 (4=61-80%) | 2 (2=21-40%) | 0 (0=0%) | 0 (0=0%) | 2 (2=21-40%) | 0 (0=0%) | 1 (1=10-20%) | 0 (0=0%) | 0 (0=0%) |
| O=C(O)c1nn(-c2ccc(OC(F)(F)F)cc2)c2cccc(N3CCOCC3)c2c1=O [Compound P25, 5-morpholino-4-oxo-1-[4-(trifluoromethoxy)phenyl] cinnoline-3-carboxylic acid] | 0 (0=0%) | 0 (0=0%) | 0 (0=0%) | 0 (0=0%) | 0 (0=0%) | 0 (0=0%) | 0 (0=0%) | 0 (0=0%) | 0 (0=0%) | 0 (0=0%) | 0 (0=0%) | 0 (0=0%) |
| C=Cc1cccc2c1c(=O)c(C(=O)O)nn2-c1ccc(OC(F)(F)F)cc1 [Compound P17, 4-oxo-1-[4-(trifluoromethoxy)phenyl]-5-vinyl-cinnoline-3-carboxylic acid] | 3 (3=41-60%) | 0 (0=0%) | 1 (1=10-20%) | 2 (2=21-40%) | 3 (3=41-60%) | 2 (2=21-40%) | 3 (3=41-60%) | 2 (2=21-40%) | 0 (0=0%) | 1 (1=10-20%) | 1 (1=10-20%) | 1 (1=10-20%) |
| O=C(O)c1nn(-c2ccc(OC(F)(F)F)cc2)c2cccc(-n3cc(C(F)(F)F)nn3)c2c1=O [Compound P21, 4-oxo-1-[4-(trifluoromethoxy)phenyl]-5-[4-(trifluoromethyl)triazol-1-yl]cinnoline-3-carboxylic acid] | 2 (2=21-40%) | 0 (0=0%) | 1 (1=10-20%) | 1 (1=10-20%) | 2 (2=21-40%) | 1 (1=10-20%) | 0 (0=0%) | 1 (1=10-20%) | 1 (1=10-20%) | 1 (1=10-20%) | 0 (0=0%) | 0 (0=0%) |
| C=Cc1cccc2c1c(=O)c(C(=O)OCC)nn2-c1ccc(OC(F)(F)F)cc1 [Compound P16, ethyl 4-oxo-1-[4-(trifluoromethoxy)phenyl]-5-vinyl-cinnoline-3-carboxylate] | 3 (3=41-60%) | 1 (1=10-20%) | 2 (2=21-40%) | 2 (2=21-40%) | 4 (4=61-80%) | 2 (2=21-40%) | 3 (3=41-60%) | 2 (2=21-40%) | 1 (1=10-20%) | 1 (1=10-20%) | 2 (2=21-40%) | 1 (1=10-20%) |
